# According to patent US20110071150A1 (priority 2009, published 2011):
# System: Jurkat IL-2 Production
# Experiment: Jurkat IL-2 Production Assay
# Format: cell-based
# Settings: Homo sapiens, Jurkat cell (ATCC), 18-20 h incubation, PHA 5 μg/mL with 1% FBS, or PMA/Ionomycin with 30% FBS (table does not say which)
# Procedure: Jurkat IL-2 Production Assay
# Cell: Jurkat cell (ATCC) was grown in RPMI 1640 with 10% FBS and 1% penicillin/streptomycin. The cell density was kept at 1.2-1.8×10^6/mL in culture flask before seeding into culture plate, and the cell density in the plate was 0.5×10^6/[…]/well.
# Culture media: RPMI 1640 with 1% FBS or 30% FBS for high serum assay.
# Test compound: serial dilution was done in 100% DMSO, and intermediate dilution was done with RPMI 1640 medium with 1% FBS. The DMSO final concentration in culture well was 0.25%.
# Stimulant: PHA (Sigma#L9017-10MG) was used for the assay with 1% FBS in culture medium, and added after 10 minutes exposure of cell to compound/DMSO. The PHA final concentration in culture well was 5 μg/mL. PMA (Sigma# P-8139 5MG)/Ionomycin (Sigma# 10634-5MG) was used for the assay with 30% FBS in culture medium, and added at same time point as the 1% FBS culture assay. The final concentration of PMA was 50 ng/mL, and Ionomycin final concentration was 500 ng/mL.
# Incubation: at 37° C. with 5% CO2 and 95% humidity for 18 h˜20 h.
# IC50: IC50 was calculated with the data analysis software XLfit4, General Pharmacology model 251.
row,Structure (SMILES),IC50 [nM]
1,"COc1nccc(-c2cc3cc(-c4cc(C(F)(F)F)nn4C)ccc3[nH]2)c1Cl [Example 43, 2-(3-Chloro-2-methoxy-pyridin-4-yl)-5-(2-methyl-5-trifluoromethyl-2H-pyrazol-3-yl)-1H-indole]",87
2,"Cn1nc(C(F)(F)F)cc1-c1ccc2[nH]c(-c3ccncc3F)cc2c1 [Example 44, 2-(3-Fluoro-pyridin-4-yl)-5-(2-methyl-5-trifluoromethyl-2H-pyrazol-3-yl)-1H-indole]",169
3,"CCn1nc(C(F)(F)F)cc1-c1ccc2[nH]c(-c3c(F)cccc3F)cc2c1 [Example 46, 2-(2,6-Difluoro-phenyl)-5-(2-ethyl-5-trifluoromethyl-2H-pyrazol-3-yl)-1H-indole]",44
4,"CCn1nc(C(F)(F)F)cc1-c1ccc2[nH]c(-c3c(F)cccc3Cl)cc2c1 [Example 47, 2-(2-Chloro-6-fluoro-phenyl)-5-(2-ethyl-5-trifluoromethyl-2H-pyrazol-3-yl)-1H-indole]",40
5,"Cn1nc(C(F)(F)F)cc1-c1ccc2[nH]c(-c3c(F)cccc3Cl)cc2c1 [Example 48, 2-(2-Chloro-6-fluoro-phenyl)-5-(2-methyl-5-trifluoromethyl-2H-pyrazol-3-yl)-1H-indole]",12
6,"CCn1nc(-c2cccnc2)cc1-c1ccc2[nH]c(-c3c(F)cccc3Cl)cc2c1 [Example 49, 2-(2-Chloro-6-fluoro-phenyl)-5-(2-ethyl-5-pyridin-3-yl-2H-pyrazol-3-yl)-1H-indole]",13
7,"Cc1sc(-c2cccnc2)nc1-c1ccc2[nH]c(-c3c(F)cccc3Cl)cc2c1 [Example 50, 2-(2-Chloro-6-fluoro-phenyl)-5-(5-methyl-2-pyridin-3-yl-thiazol-4-yl)-1H-indole]",13
8,"Cn1nc(-c2ccncc2)cc1-c1ccc2[nH]c(-c3c(F)cccc3Cl)cc2c1 [Example 51, 2-(2-Chloro-6-fluoro-phenyl)-5-(2-methyl-5-pyridin-4-yl-2H-pyrazol-3-yl)-1H-indole]",524
9,"COc1ccc(-c2ccc3[nH]c(-c4c(F)cccc4Cl)cc3c2)c(OC)c1 [Example 54, 2-(2-chloro-6-fluoro-phenyl)-5-(2,4-dimethoxy-phenyl)-1H-indole]",33
10,"Cc1sc(-c2ccccn2)nc1-c1ccc2[nH]c(-c3ccc(F)cc3Cl)cc2c1 [Example 57, 2-(2-Chloro-4-fluoro-phenyl)-5-(5-methyl-2-pyridin-2-yl-thiazol-4-yl)-1H-indole]",301
11,"Cc1sc(-c2ccccn2)nc1-c1ccc2[nH]c(-c3cc(F)ccc3Cl)cc2c1 [Example 58, 2-(2-Chloro-5-fluoro-phenyl)-5-(5-methyl-2-pyridin-2-yl-thiazol-4-yl)-1H-indole]",689
12,"Cn1nc(C(F)(F)F)cc1-c1ccc2[nH]c(-c3ccccc3Cl)cc2c1 [Example 59, 2-(2-Chloro-phenyl)-5-(2-methyl-5-trifluoromethyl-2H-pyrazol-3-yl)-1H-indole]",105
13,"Cc1ccccc1-c1cc2cc(-c3cc(C(F)(F)F)nn3C)ccc2[nH]1 [Example 60, 5-(2-Methyl-5-trifluoromethyl-2H-pyrazol-3-yl)-2-o-tolyl-1H-indole]",140
14,"Cn1nc(C2CC2)cc1-c1ccc2[nH]c(-c3ccccc3Cl)cc2c1 [Example 61, 2-(2-Chloro-phenyl)-5-(5-cyclopropyl-2-methyl-2H-pyrazol-3-yl)-1H-indole]",848
15,"COc1cc(F)c(-c2cc3cc(-c4nc(-c5cccnc5)sc4C)ccc3[nH]2)c(F)c1 [Example 66, 2-(2,6-Difluoro-4-methoxy-phenyl)-5-(5-methyl-2-pyridin-3-yl-thiazol-4-yl)-1H-indole]",33
16,"Cc1sc(-c2cccnc2)nc1-c1ccc2[nH]c(-c3ccc(F)cc3Cl)cc2c1 [Example 67, 2-(2-Chloro-4-fluoro-phenyl)-5-(5-methyl-2-pyridin-3-yl-thiazol-4-yl)-1H-indole]",63
17,Cc1sc(C2CC2)nc1-c1ccc2[nH]c(-c3ccccc3Cl)cc2c1 [Example 71],584
18,"Cc1sc(C2CC2)nc1-c1ccc2[nH]c(-c3c(F)cccc3F)cc2c1 [Example 72, 5-(2-Cyclopropyl-5-methyl-thiazol-4-yl)-2-(2,6-difluoro-phenyl)-1H-indole]",397
19,"Cc1sc(C2CCOCC2)nc1-c1ccc2[nH]c(-c3c(F)cccc3F)cc2c1 [Example 74, 2-(2,6-Difluoro-phenyl)-5-[5-methyl-2-(tetrahydro-pyran-4-yl)-thiazol-4-yl]-1H-indole]",668
20,"CCn1nc(-c2cccnc2)cc1-c1ccc2[nH]c(-c3ccccc3F)cc2c1 [Example 76, 2-(2-Fluoro-phenyl)-5-(2-ethyl-5-pyridin-3-yl-2H-pyrazol-3-yl)-1H-indole]",108
21,"Cn1nc(-c2cccnc2)cc1-c1ccc2[nH]c(-c3ccccc3Cl)cc2c1 [Example 77, 2-(2-Chloro-phenyl)-5-(2-methyl-5-pyridin-3-yl-2H-pyrazol-3-yl)-1H-indole]",169
22,"CCn1nc(-c2cccnc2)cc1-c1ccc2[nH]c(-c3ccccc3Cl)cc2c1 [Example 78, 2-(2-Chloro-phenyl)-5-(2-ethyl-5-pyridin-3-yl-2H-pyrazol-3-yl)-1H-indole]",95
23,"Cc1ccccc1-c1cc2cc(-c3cc(-c4cccnc4)nn3C)ccc2[nH]1 [Example 79, 5-(2-Methyl-5-pyridin-3-yl-2H-pyrazol-3-yl)-2-o-tolyl-1H-indole]",139

# More lines, now with the values ahead:
row,IC50 [nM],Structure (SMILES)
1,486,"Cn1nc(C(F)(F)F)cc1-c1ccc2[nH]c(-c3cccc(Cl)c3Cl)cc2c1 [Example 41, 2-(2,3-Dichloro-phenyl)-5-(2-methyl-5-trifluoromethyl-2H-pyrazol-3-yl)-1H-indole]"
2,204,"Cn1nc(C(F)(F)F)cc1-c1ccc2[nH]c(-c3cc(F)ccc3Cl)cc2c1 [Example 42, 2-(2-Chloro-5-fluoro-phenyl)-5-(2-methyl-5-trifluoromethyl-2H-pyrazol-3-yl)-1H-indole]"
3,375,"Cc1noc(C)c1-c1cc2cc(-c3cc(C(F)(F)F)nn3C)ccc2[nH]1 [Example 45, 2-(3,5-Dimethyl-isoxazol-4-yl)-5-(2-methyl-5-trifluoromethyl-2H-pyrazol-3-yl)-1H-indole]"
4,62,"Cc1cc(-c2ncco2)ccc1-c1ccc2[nH]c(-c3c(F)cccc3Cl)cc2c1 [Example 52, 2-(2-Chloro-6-fluoro-phenyl)-5-(2-methyl-4-oxazol-2-yl-phenyl)-1H-indole]"
5,14,"COC(=O)c1ccc(-c2ccc3[nH]c(-c4c(F)cccc4Cl)cc3c2)c(C)c1 [Example 53, 4-[2-(2-Chloro-6-fluoro-phenyl)-1H-indol-5-yl]-3-methyl-benzoic acid methyl ester]"
6,79,"Fc1cccc(Cl)c1-c1cc2cc(-c3ccc(C(F)(F)F)cc3C(F)(F)F)ccc2[nH]1 [Example 55, 5-(2,4-Bis-trifluoromethyl-phenyl)-2-(2-chloro-6-fluoro-phenyl)-1H-indole]"
7,132,"Fc1cccc(Cl)c1-c1cc2cc(-c3ccc(C(F)(F)F)cc3Cl)ccc2[nH]1 [Example 56, 2-(2-Chloro-6-fluoro-phenyl)-5-(2-chloro-4-trifluoromethyl-phenyl)-1H-indole]"
8,964,"Cc1ccccc1-c1cc2cc(-c3cc(C4CC4)nn3C)ccc2[nH]1 [Example 62, 5-(5-Cyclopropyl-2-methyl-2H-pyrazol-3-yl)-2-o-tolyl-1H-indole]"
9,368,"Cn1nc(C2CC2)cc1-c1ccc2[nH]c(-c3c(F)cccc3F)cc2c1 [Example 63, 5-(5-Cyclopropyl-2-methyl-2H-pyrazol-3-yl)-2-(2,6-difluoro-phenyl)-1H-indole]"
10,81,"Cc1sc(-c2cccnc2)nc1-c1ccc2[nH]c(-c3ccncc3F)cc2c1 [Example 64, 2-(3-Fluoro-pyridin-4-yl)-5-(5-methyl-2-pyridin-3-yl-thiazol-4-yl)-1H-indole]"
11,71,"COC(=O)c1ccc(-c2cc3cc(-c4nc(-c5cccnc5)sc4C)ccc3[nH]2)c(C)c1 [Example 65, Methyl-4-[5-(5-methyl-2-pyridin-3-yl-thiazol-4-yl)-1H-indol-2-yl]-benzoic acid methyl ester]"
12,152,"Cc1sc(-c2cccnc2)nc1-c1ccc2[nH]c(-c3cncnc3C(C)C)cc2c1 [Example 68, 2-(4-Isopropyl-pyrimidin-5-yl)-5-(5-methyl-2-pyridin-3-yl-thiazol-4-yl)-1H-indole]"
13,949,"Cc1sc(C(C)C)nc1-c1ccc2[nH]c(-c3ccccc3Cl)cc2c1 [Example 69, 2-(2-Chloro-phenyl)-5-(2-isopropyl-5-methyl-thiazol-4-yl)-1H-indole]"
14,356,"Cc1sc(C(C)C)nc1-c1ccc2[nH]c(-c3c(F)cccc3F)cc2c1 [Example 70, 2-(2,6-Difluoro-phenyl)-5-(2-isopropyl-5-methyl-thiazol-4-yl)-1H-indole]"
15,60,"Cc1sc(-c2ncco2)nc1-c1ccc2[nH]c(-c3c(F)cccc3F)cc2c1 [Example 73, 2-(2,6-Difluoro-phenyl)-5-(5-methyl-2-oxazol-2-yl-thiazol-4-yl)-1H-indole]"
16,310,"Cn1nc(-c2cccnc2)cc1-c1ccc2[nH]c(-c3ccccc3F)cc2c1 [Example 75, 2-(2-Fluoro-phenyl)-5-(2-methyl-5-pyridin-3-yl-2H-pyrazol-3-yl)-1H-indole]"
